Experimental data reported in ChEMBL document CHEMBL1201862, “PubChem BioAssay data set” (2004).
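Where inhibition never reached the appropriate level, the endpoint shown equals the highest concentration tested. Otherwise, values were interpolated linearly from a five-concentration, 48-hour dose response in 96-well plates. GI50 = concentration required for 50% inhibition of growth.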 Active and inactive are the calls of the source. No stated cut-off is given here; in the data, active = GI50 up to about 1.1 µM and inactive = higher.

Key:
Test in all cases: NCI-60 cell line screen, 48 h
[1] = system: SK-MEL-2
[2] = system: HOP-62
[3] = system: 786-0
[4] = system: IGROV-1
[5] = system: A498
[6] = system: LOX IMVI
[7] = system: NCI-H522
[8] = system: OVCAR-4
[9] = system: M14
[10] = system: NCI-H23
[11] = system: SF-268
[12] = system: CCRF-CEM
[13] = system: SNB-75
[14] = system: RXF 393

Measured: GI50

CN(CN1C(=O)C2Cc3ccccc3CN2C1=O)c1ccccn1 (stereo not drawn)
inactive: [1] > 100 µM | [2] > 100 µM | [3] > 100 µM | [4] > 100 µM | [5] > 100 µM | [6] > 100 µM | [7] > 100 µM | [8] > 100 µM | [9] > 100 µM | [10] > 100 µM | [11] > 100 µM | [12] > 100 µM

Nc1ccc2ncc(NCc3ccc(F)cc3)nc2c1
inactive: [1] > 100 µM | [2] 40.6 µM | [3] > 100 µM | [13] 25.4 µM | [14] 34.4 µM | [6] 75 µM | [7] 83.2 µM | [8] 92.3 µM | [9] > 100 µM | [10] > 100 µM | [11] 48.2 µM | [12] > 100 µM

CCOC(=O)/C(C(C)=O)=C1/N[C@H](C(=O)OCC)CS1
inactive: [1] > 100 µM | [2] > 100 µM | [3] > 100 µM | [4] > 100 µM | [13] > 100 µM | [14] > 100 µM | [6] > 100 µM | [7] > 100 µM | [8] > 100 µM | [9] > 100 µM | [10] > 100 µM | [11] > 100 µM | [12] > 100 µM

COc1ccccc1NC(=O)CC(=O)N1N=C(c2ccccc2)C(/N=N/c2ccc(Cl)cc2)C1=O (stereo not drawn)
inactive: [1] 69.7 µM | [2] 23.4 µM | [3] 13.9 µM | [4] 29.9 µM | [13] 19.7 µM | [5] 15.2 µM | [6] 22.9 µM | [7] 32.1 µM | [8] 25.2 µM | [9] 59.8 µM | [10] 34.4 µM | [11] 50.2 µM

CN1C(=O)C(C)(C)C2(SC(C)(C)C2(C)C)N(C)C1=S (stereo not drawn)
inactive: [1] > 100 µM | [2] > 100 µM | [3] > 100 µM | [4] > 100 µM | [13] > 100 µM | [14] > 100 µM | [7] 86.7 µM | [8] > 100 µM | [9] > 100 µM | [10] > 100 µM | [11] > 100 µM | [12] > 100 µM

COc1ccc(/C=C(/C(=O)O)c2cc(OC)c(OC)c(OC)c2)cc1
inactive: [1] 47.5 µM | [2] 35 µM | [3] 41.3 µM | [4] > 100 µM | [13] 21.6 µM | [5] 52.4 µM | [7] 16.8 µM | [8] 41.4 µM | [9] 24.2 µM | [10] 27.2 µM | [11] 70.1 µM | [12] 43.1 µM
